The text below walks through data of patent US12662479B2 (Foghorn Therapeutics Inc., priority 2020, dated 2026).

Experiment [1] concerns the target T1, HiBit-BRM fusion protein (Homo sapiens, UniProt P51531).
T1 construct: expressed in transfected cells
In words: HiBiT-BRM cell-based degradation assay (Nano-Glo HiBiT Lytic Detection, 24 h). Conditions: HeLa cells expressing HiBiT-BRM; for DC50: read-out: BRM HiBit Degradation IC50; for BRM HiBit Degradation Maximum measured: top dose 30 μM. A digest of the protocol:
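Luminescence from reconstituted NanoBiT luciferase in lysed HeLa HiBiT-BRM cells served as the measure of remaining BRM after 24 h treatment. Compounds were tested from 30 μM final downward in 3-fold steps. DMSO and 2 μM of a standard BRM/BRG1 degrader defined the scale limits.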
In general terms: HiBiT is a short tag that completes a luciferase, so light tracks the accessible tagged protein.

The target of experiment [2] is T2, HiBit-BRG1 fusion protein (Homo sapiens, UniProt P51532).
T2 construct: expressed in transfected cells
In words: HiBiT-BRG1 cell-based degradation assay (Nano-Glo HiBiT Lytic Detection, 24 h). Conditions: HeLa cells expressing HiBit-BRG1 and LgBit; for DC50: read-out: BRG1 HiBit Degradation IC50; for Dmax: HeLa, top dose 30 μM, read-out: BRG1 HiBit Degradation Maximum measured. Summed up:
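Stable HeLa line expressing HiBiT-BRG1 and LgBiT, seeded at 5000 cells/well; luminescence read after lytic Nano-Glo HiBiT reagent and 10 min shaking at RT. % degradation normalised between DMSO (high control) and 2 μM reference BRM/BRG1 degrader (low control).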

T1 sequence (P51531 whole entry, the tested form may be a part): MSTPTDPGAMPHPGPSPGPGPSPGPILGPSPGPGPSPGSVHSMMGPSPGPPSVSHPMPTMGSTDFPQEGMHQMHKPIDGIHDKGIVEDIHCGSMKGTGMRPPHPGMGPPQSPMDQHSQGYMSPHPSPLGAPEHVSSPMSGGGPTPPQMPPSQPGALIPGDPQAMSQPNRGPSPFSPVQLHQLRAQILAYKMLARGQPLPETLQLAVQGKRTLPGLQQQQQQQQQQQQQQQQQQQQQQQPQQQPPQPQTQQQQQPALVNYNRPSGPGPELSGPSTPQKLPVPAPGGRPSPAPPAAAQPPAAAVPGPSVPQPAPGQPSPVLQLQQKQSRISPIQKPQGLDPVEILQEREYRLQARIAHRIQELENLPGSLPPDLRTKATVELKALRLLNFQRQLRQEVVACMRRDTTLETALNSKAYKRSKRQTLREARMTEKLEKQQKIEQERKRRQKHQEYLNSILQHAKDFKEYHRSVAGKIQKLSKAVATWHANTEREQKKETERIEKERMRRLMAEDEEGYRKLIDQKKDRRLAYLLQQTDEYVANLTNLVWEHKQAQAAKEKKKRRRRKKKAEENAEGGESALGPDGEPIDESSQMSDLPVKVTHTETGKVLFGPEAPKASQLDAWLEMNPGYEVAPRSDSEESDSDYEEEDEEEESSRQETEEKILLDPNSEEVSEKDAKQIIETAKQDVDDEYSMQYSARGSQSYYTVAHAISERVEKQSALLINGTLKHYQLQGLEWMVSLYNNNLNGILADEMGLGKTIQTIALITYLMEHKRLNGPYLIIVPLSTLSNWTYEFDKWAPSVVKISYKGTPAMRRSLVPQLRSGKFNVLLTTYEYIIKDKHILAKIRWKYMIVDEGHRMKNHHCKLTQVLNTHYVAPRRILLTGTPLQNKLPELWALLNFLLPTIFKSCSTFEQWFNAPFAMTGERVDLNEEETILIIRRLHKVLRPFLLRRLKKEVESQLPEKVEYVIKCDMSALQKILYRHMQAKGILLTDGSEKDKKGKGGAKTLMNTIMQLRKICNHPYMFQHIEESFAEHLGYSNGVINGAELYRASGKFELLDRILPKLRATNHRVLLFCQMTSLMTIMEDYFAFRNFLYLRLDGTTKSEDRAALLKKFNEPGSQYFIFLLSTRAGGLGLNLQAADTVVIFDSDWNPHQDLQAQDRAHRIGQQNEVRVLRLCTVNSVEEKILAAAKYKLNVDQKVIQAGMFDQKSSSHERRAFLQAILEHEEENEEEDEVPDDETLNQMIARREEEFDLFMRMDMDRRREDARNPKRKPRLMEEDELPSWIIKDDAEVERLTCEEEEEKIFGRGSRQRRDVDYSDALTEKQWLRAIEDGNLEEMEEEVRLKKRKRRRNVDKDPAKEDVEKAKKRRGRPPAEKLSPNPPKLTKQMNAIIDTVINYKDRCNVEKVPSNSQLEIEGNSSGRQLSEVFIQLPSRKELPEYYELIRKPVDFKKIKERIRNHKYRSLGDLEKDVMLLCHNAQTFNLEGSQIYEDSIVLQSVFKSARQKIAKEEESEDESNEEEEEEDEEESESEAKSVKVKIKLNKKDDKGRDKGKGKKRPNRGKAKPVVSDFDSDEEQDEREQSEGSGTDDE
T2 sequence (P51532 whole entry, the tested form may be a part): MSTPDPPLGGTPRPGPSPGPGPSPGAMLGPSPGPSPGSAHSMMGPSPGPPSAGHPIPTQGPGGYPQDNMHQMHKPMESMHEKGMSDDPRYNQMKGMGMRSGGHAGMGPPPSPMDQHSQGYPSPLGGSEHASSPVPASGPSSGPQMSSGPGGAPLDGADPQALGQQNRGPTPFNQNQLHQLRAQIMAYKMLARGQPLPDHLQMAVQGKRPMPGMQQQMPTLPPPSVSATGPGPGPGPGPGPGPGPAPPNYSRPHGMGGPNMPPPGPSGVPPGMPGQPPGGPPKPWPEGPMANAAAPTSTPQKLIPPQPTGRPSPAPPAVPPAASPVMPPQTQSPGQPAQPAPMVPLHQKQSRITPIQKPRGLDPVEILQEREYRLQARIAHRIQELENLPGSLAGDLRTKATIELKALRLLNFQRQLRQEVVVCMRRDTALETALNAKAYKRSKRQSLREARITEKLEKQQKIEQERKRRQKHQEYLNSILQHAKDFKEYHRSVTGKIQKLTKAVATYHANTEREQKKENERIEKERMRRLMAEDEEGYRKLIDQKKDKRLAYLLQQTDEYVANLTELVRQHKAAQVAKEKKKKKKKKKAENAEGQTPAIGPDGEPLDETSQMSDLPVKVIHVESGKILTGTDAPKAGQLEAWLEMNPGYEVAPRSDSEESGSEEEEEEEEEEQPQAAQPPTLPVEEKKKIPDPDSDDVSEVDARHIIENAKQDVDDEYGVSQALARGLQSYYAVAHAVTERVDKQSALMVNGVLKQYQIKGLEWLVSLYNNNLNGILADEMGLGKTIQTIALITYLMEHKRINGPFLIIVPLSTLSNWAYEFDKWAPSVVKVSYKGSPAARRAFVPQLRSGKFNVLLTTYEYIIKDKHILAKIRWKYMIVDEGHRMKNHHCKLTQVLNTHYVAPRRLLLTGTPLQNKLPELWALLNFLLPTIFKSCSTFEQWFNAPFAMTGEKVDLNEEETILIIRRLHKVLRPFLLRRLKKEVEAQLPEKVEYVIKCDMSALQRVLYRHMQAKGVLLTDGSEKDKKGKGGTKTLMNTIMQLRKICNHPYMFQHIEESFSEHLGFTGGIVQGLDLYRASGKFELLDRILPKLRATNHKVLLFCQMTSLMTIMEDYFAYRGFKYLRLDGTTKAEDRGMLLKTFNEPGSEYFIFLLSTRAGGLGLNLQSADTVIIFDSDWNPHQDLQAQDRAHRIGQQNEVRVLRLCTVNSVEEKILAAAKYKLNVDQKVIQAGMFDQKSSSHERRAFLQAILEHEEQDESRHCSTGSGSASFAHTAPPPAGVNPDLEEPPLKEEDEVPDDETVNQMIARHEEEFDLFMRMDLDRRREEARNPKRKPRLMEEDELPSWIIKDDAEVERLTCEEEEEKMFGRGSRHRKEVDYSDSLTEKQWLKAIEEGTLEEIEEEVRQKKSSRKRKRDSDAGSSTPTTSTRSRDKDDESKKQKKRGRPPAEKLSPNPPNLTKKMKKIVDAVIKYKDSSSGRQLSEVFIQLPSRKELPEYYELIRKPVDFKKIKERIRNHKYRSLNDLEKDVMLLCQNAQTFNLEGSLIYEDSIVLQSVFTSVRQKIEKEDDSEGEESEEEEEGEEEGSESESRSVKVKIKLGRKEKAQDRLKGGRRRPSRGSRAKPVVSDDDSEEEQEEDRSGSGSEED

As to `CS(=O)(=O)n1ccc(C(=O)NCC(=O)Nc2nc(-c3cccc(-c4ccnc(C5(C(=O)NCCNc6ccc7c(c6)CN(C6CCC(=O)NC6=O)C7=O)CC5)c4)c3)cs2)c1` (stereo not shown) [Compound 167, N-(2-[[2-(2,6-dioxopiperidin-3-yl)-1-oxo-3H-isoindol-5-yl]amino]ethyl)-1-[4-[3-(2-[2-[(1-methanesulfonylpyrrol-3-yl)formamido]acetamido]-1,3-thiazol-4-yl)phenyl]pyridin-2-yl]cyclopropane-1-carboxamide], in experiment [1], the DC50 was less than 0.1 µM and the “BRM HiBit Degradation Maximum measured” value is “A (‘A’ = Maximum degradation >75%)”. For the same molecule, in experiment [2], the DC50 was less than 0.1 µM and the Dmax was greater than 75%.
In the case of `CS(=O)(=O)n1ccc(C(=O)NCC(=O)Nc2nc(-c3cccc(-c4ccnc(C5(C(=O)NCCNc6ccc7c(c6)C(=O)N(C6CCC(=O)NC6=O)C7)CC5)c4)c3)cs2)c1` (stereo not shown) [Compound 168, N-(2-((4-(3-(2-(1-((2-((2-(2,6-dioxopiperidin-3-yl)-3-oxoisoindolin-5-yl)amino)ethyl)carbamoyl)cyclopropyl)pyridin-4-yl)phenyl)thiazol-2-yl)amino)-2-oxoethyl)-1-(methylsulfonyl)-1H-pyrrole-3-carboxamide], in experiment [1], the DC50 was less than 0.1 µM and the “BRM HiBit Degradation Maximum measured” value is listed as “A (‘A’ = Maximum degradation >75%)”. Further, in experiment [2], the DC50 is less than 0.1 µM and the Dmax was greater than 75%.
For the molecule `CS(=O)(=O)n1ccc(C(=O)NCC(=O)Nc2nc(-c3cccc(-c4ccnc(C5(C(=O)NCCNc6cccc7c6CN(C6CCC(=O)NC6=O)C7=O)CC5)c4)c3)cs2)c1` (stereo not shown) [Compound 169, N-(2-((4-(3-(2-(1-((2-((2-(2,6-dioxopiperidin-3-yl)-1-oxoisoindolin-4-yl)amino)ethyl)carbamoyl)cyclopropyl)pyridin-4-yl)phenyl)thiazol-2-yl)amino)-2-oxoethyl)-1-(methylsulfonyl)-1H-pyrrole-3-carboxamide], in experiment [1], the DC50 is greater than 10 µM and the “BRM HiBit Degradation Maximum measured” value is listed as “C (‘C’ = Maximum degradation <50%)”. In experiment [2], the DC50 was greater than 10 µM and the Dmax is less than 50%.
In the case of `CC(C)(C)n1ccc(C(=O)N[C@@H](COCc2ccc(C(=O)NC3CCN(CCOc4ccc5c(c4)C(=O)N(C4CCC(=O)NC4=O)C5=O)CC3)cc2)C(=O)Nc2nc(-c3ccccc3)cs2)c1` (stereo partly drawn) [Compound 170, 4-[[(2S)-2-[(1-tert-butylpyrrol-3-yl)formamido]-2-[(4-phenyl-1,3-thiazol-2-yl)carbamoyl]ethoxy]methyl]-N-[1-(2-[[2-(2,6-dioxopiperidin-3-yl)-1,3-dioxoisoindol-5-yl]oxy]ethyl)piperidin-4-yl]benzamide], in experiment [1], the DC50 lay in the range of 0.1 to 1 µM and the “BRM HiBit Degradation Maximum measured” value was “A (‘A’ = Maximum degradation >75%)”. In experiment [2], the DC50 was in the range of 0.1 to 1 µM and the Dmax is greater than 75%.
Take `CC(C)(C)n1ccc(C(=O)N[C@@H](COCc2ccc(C(=O)NCCOC3CN(c4ccc5c(c4)C(=O)N(C4CCC(=O)NC4=O)C5=O)C3)cc2)C(=O)Nc2nc(-c3ccccc3)cs2)c1` (stereo partly shown) [Compound 171]: the DC50 in experiment [1] and in experiment [2] was less than 0.1 µM each time.
For the molecule `CS(=O)(=O)n1ccc(C(=O)N[C@@H](COCCCC(=O)NCCCCS(=O)(=O)CCCNc2cccc3c2C(=O)N(C2CCC(=O)NC2=O)C3=O)C(=O)Nc2nc(-c3ccccc3)cs2)c1` (stereo partly shown) [Compound 172], in experiment [1], the DC50 is greater than 10 µM and the “BRM HiBit Degradation Maximum measured” value was “C (‘C’ = Maximum degradation <50%)”. Moreover, in experiment [2], the DC50 is greater than 10 µM and the Dmax is less than 50%.
Consider `Cc1ncsc1-c1ccc(CNC(=O)[C@@H]2C[C@@H](O)CN2C(=O)[C@@H](NC(=O)COCCOCCNC(=O)CCCOC[C@H](NC(=O)c2ccn(S(C)(=O)=O)c2)C(=O)Nc2nc(-c3ccccc3)cs2)C(C)(C)C)cc1` [Compound 173, (2S,4R)-4-hydroxy-1-[(2S)-2-[2-[2-(2-[4-[(2S)-2-[(1-methanesulfonylpyrrol-3-yl)formamido]-2-[(4-phenyl-1,3-thiazol-2-yl)carbamoyl]ethoxy]butanamido]ethoxy)ethoxy]acetamido]-3,3-dimethylbutanoyl]-N-[[4-(4-methyl-1,3-thiazol-5-yl)phenyl]methyl]pyrrolidine-2-carboxamide], for which, in experiment [1], the DC50 was greater than 10 µM and the “BRM HiBit Degradation Maximum measured” value is “C (‘C’ = Maximum degradation <50%)”. In addition, in experiment [2], the DC50 is greater than 10 µM and the Dmax is less than 50%.
Regarding `Cc1ncsc1-c1ccc(CNC(=O)C2CC(O)CN2C(=O)C(NC(=O)CCCCCCCNC(=O)c2ccc(COCC(NC(=O)c3ccn(S(C)(=O)=O)c3)C(=O)Nc3nc(-c4ccccc4)cs3)cc2)C(C)(C)C)cc1` (stereo not shown) [Compound 174], in experiment [1], the DC50 was 0.1 to 1 µM; the “BRM HiBit Degradation Maximum measured” value was “B (‘B’ = Maximum degradation ≥50% and ≤75%)”. In addition, in experiment [2], the DC50 was 0.1 to 1 µM and the Dmax was 50 to 75%.
Turning to `CN(CCNC(=O)COc1cccc2c1C(=O)N(C1CCC(=O)NC1=O)C2=O)CCNC(=O)c1ccc(COC[C@H](NC(=O)c2ccn(S(C)(=O)=O)c2)C(=O)Nc2nc(-c3ccccc3)cs2)cc1` (stereo partly shown) [Compound 175], in experiment [1], the DC50 is greater than 10 µM and the “BRM HiBit Degradation Maximum measured” value was “C (‘C’ = Maximum degradation <50%)”. In experiment [2], the DC50 is greater than 10 µM and the Dmax is less than 50%.
In the case of `CS(=O)(=O)n1ccc(C(=O)N[C@@H](COCc2ccc(CNC(=O)CCN3CC4(C3)CN(c3ccc5c(c3)C(=O)N(C3CCC(=O)NC3=O)C5=O)C4)cc2)C(=O)Nc2nc(-c3ccccc3)cs2)c1` (stereo partly drawn) [Compound 176, (2S)-3-([4-[(3-[6-[2-(2,6-dioxopiperidin-3-yl)-1,3-dioxoisoindol-5-yl]-2,6-diazaspiro[3.3]heptan-2-yl]propanamido)methyl]phenyl]methoxy)-2-[(1-methanesulfonylpyrrol-3-yl)formamido]-N-(4-phenyl-1,3-thiazol-2-yl)propanamide], in experiment [1], the DC50 lay in the range of 0.1 to 1 µM; the “BRM HiBit Degradation Maximum measured” value was “B (‘B’ = Maximum degradation ≥50% and ≤75%)”. For the same molecule, in experiment [2], the DC50 fell in the range of 0.1 to 1 µM and the Dmax lay within 50 to 75%.
Turning to `Cc1ncsc1-c1ccc(CNC(=O)[C@@H]2C[C@@H](O)CN2C(=O)[C@@H](NC(=O)CCCCCCCCC(=O)NCc2ccc(COC[C@H](NC(=O)c3ccn(S(C)(=O)=O)c3)C(=O)Nc3nc(-c4ccccc4)cs3)cc2)C(C)(C)C)cc1` [Compound 177, N-[(2S)-1-[(2S,4R)-4-hydroxy-2-([[4-(4-methyl-1,3-thiazol-5-yl)phenyl]methyl]carbamoyl)pyrrolidin-1-yl]-3,3-dimethyl-1-oxobutan-2-yl]-N′-[(4-[[(2S)-2-[(1-methanesulfonylpyrrol-3-yl)formamido]-2-[(4-phenyl-1,3-thiazol-2-yl)carbamoyl]ethoxy]methyl]phenyl)methyl]decanediamide], in experiment [1], the DC50 was greater than 10 µM and the “BRM HiBit Degradation Maximum measured” value was “C (‘C’ = Maximum degradation <50%)”. For the same molecule, in experiment [2], the DC50 lay in the range of 0.1 to 1 µM and the Dmax was 50 to 75%.
The corresponding values for `CS(=O)(=O)n1ccc(C(=O)N[C@@H](COCc2ccc(CNC(=O)CCCOc3cccc4c3C(=O)N(C3CCC(=O)NC3=O)C4=O)cc2)C(=O)Nc2nc(-c3ccccc3)cs2)c1` (stereo partly drawn) [Compound 178, 4-[[2-(2,6-dioxopiperidin-3-yl)-1,3-dioxoisoindol-4-yl]oxy]-N-[(4-[[(2S)-2-[(1-methanesulfonylpyrrol-3-yl)formamido]-2-[(4-phenyl-1,3-thiazol-2-yl)carbamoyl]ethoxy]methyl]phenyl)methyl]butanamide] are greater than 10 µM, “C (‘C’ = Maximum degradation <50%)”, greater than 10 µM and less than 50%.
The corresponding values for `CS(=O)(=O)n1ccc(C(=O)N[C@@H](COCc2ccc(CNC(=O)CCCCCCOc3cccc4c3C(=O)N(C3CCC(=O)NC3=O)C4=O)cc2)C(=O)Nc2nc(-c3ccccc3)cs2)c1` (stereo partly drawn) [Compound 179, 7-[[2-(2,6-dioxopiperidin-3-yl)-1,3-dioxoisoindol-4-yl]oxy]-N-[(4-[[(2S)-2-[(1-methanesulfonylpyrrol-3-yl)formamido]-2-[(4-phenyl-1,3-thiazol-2-yl)carbamoyl]ethoxy]methyl]phenyl)methyl]heptanamide] are greater than 10 µM, “C (‘C’ = Maximum degradation <50%)”, greater than 10 µM and less than 50%.
As for `CS(=O)(=O)n1ccc(C(=O)N[C@@H](COCc2ccc(CNC(=O)CCCCCCCCCCNc3cccc4c3C(=O)N(C3CCC(=O)NC3=O)C4=O)cc2)C(=O)Nc2nc(-c3ccccc3)cs2)c1` (stereo partly drawn) [Compound 180, 11-[[2-(2,6-dioxopiperidin-3-yl)-1,3-dioxoisoindol-4-yl]amino]-N-[(4-[[(2S)-2-[(1-methanesulfonylpyrrol-3-yl)formamido]-2-[(4-phenyl-1,3-thiazol-2-yl)carbamoyl]ethoxy]methyl]phenyl)methyl]undecanamide], in experiment [1], the DC50 lay within 0.1 to 1 µM; the “BRM HiBit Degradation Maximum measured” value is “B (‘B’ = Maximum degradation ≥50% and ≤75%)”. Further, in experiment [2], the DC50 was 0.1 to 1 µM and the Dmax lay in the range of 50 to 75%.
For `CS(=O)(=O)n1ccc(C(=O)N[C@@H](COCc2ccc(CNC(=O)CCOCCOCCNc3cccc4c3C(=O)N(C3CCC(=O)NC3=O)C4=O)cc2)C(=O)Nc2nc(-c3ccccc3)cs2)c1` (stereo partly shown) [Compound 181], in experiment [1], the DC50 is 0.1 to 1 µM; the “BRM HiBit Degradation Maximum measured” value was “B (‘B’ = Maximum degradation ≥50% and ≤75%)”. For the same molecule, in experiment [2], the DC50 was 0.1 to 1 µM and the Dmax was in the range of 50 to 75%.
